Entries after “also recorded” stand apart in the source; their conditions may differ. Counter-ions that a name gives are not always drawn.
Test system: Grover's disease
Test: Treatment of patients with Grover's disease (clinical study)
Type: in vivo, human
Details: three patients with Grover's disease; diet (no seafood) and chelation with Succimer 200-300 mg TID x 1-2 months
Source text: Fourteen patients with Grover's disease (ages 55-85) were randomly selected from a private dermatology practice. All patients were diagnosed using the following criteria: (1) complaints of pruritic eruption of the chest, abdomen or back; (2) physical exam showing discreet small (<2 mm) scattered erythematous scaly or crusted papules of chest, abdomen or back; (3) biopsy showing a superficial perivascular infiltrate of lymphocytes, suprabasal clefts and acantholytic cells. All patients gave verbal consent for a shave biopsy of a skin lesion and a blood test for mercury. Two were women and twelve were men.
Of the fourteen patients with Grover's disease, all had measurable blood mercury (mean—10 u/Liter). All patients complained of pruritus and were aware of skin lesions. All fourteen patients were treated with topical steroids without improvement.

O=C(O)[C@@H](S)[C@@H](S)C(=O)O [Succimer, 2,3-dimercaptosuccinic acid or salt thereof]
Effect of treatment on the cutaneous eruption of Grover's disease: clearing of the eruption; also recorded: beneficial effect
